Results published in ChEMBL document CHEMBL3588782, “Synthesis, antiribosomal and antibacterial activity of 4-O-glycopyranosyl paromomycin aminoglycoside antibiotics” (Medchemcomm, 2014).
Values after ≈ are worked out from the molar mass of the structure shown.

Key:
Bacterial 70S ribosome = assay: Inhibition of Mycobacterium smegmatis ribosome containing wild type ribosomal RNA A-site in rabbit reticulocyte lysates assessed as reduction in ribosome-mediated protein synthesis in presence of S-30 extracts by fire fly luciferase synthesis based cell-free translation assay; design: species or system Mycolicibacterium smegmatis
[1] = Inhibition of Mycobacterium smegmatis ribosome containing ribosomal RNA A-site G1491C mutant in rabbit reticulocyte lysates assessed as reduction in ribosome-mediated protein synthesis in presence of S-30 extracts by fire fly luciferase synthesis based cell-free translation assay; design: species or system Mycolicibacterium smegmatis
[2] = Inhibition of Mycobacterium smegmatis ribosome containing ribosomal RNA A-site G1491A mutant in rabbit reticulocyte lysates assessed as reduction in ribosome-mediated protein synthesis in presence of S-30 extracts by fire fly luciferase synthesis based cell-free translation assay; design: species or system Mycolicibacterium smegmatis
[3] = Inhibition of Mycobacterium smegmatis ribosome containing ribosomal RNA A-site A1408G mutant in rabbit reticulocyte lysates assessed as reduction in ribosome-mediated protein synthesis in presence of S-30 extracts by fire fly luciferase synthesis based cell-free translation assay; design: species or system Mycolicibacterium smegmatis
80S Ribosome = assay: Inhibition of human ribosome containing eukaryotic wild type ribosomal RNA A-site in rabbit reticulocyte lysates assessed as reduction in ribosome-mediated protein synthesis in presence of S-30 extracts by fire fly luciferase synthesis based cell-free translation assay
[4] = Inhibition of human ribosome containing eukaryotic ribosomal RNA A-site A1555G mutant in rabbit reticulocyte lysates assessed as reduction in ribosome-mediated protein synthesis in presence of S-30 extracts by fire fly luciferase synthesis based cell-free translation assay
[5] = Inhibition of human ribosome containing eukaryotic ribosomal RNA A-site Cyt14 allele in rabbit reticulocyte lysates assessed as reduction in ribosome-mediated protein synthesis in presence of S-30 extracts by fire fly luciferase synthesis based cell-free translation assay
Ribosome = assay: Inhibition of ribosome-mediated protein synthesis in rabbit reticulocyte lysates in presence of S-30 extracts by fire fly luciferase synthesis based cell-free translation assay; design: species or system Oryctolagus cuniculus
Staphylococcus aureus [6] = assay: Antibacterial activity against methicillin-resistant Staphylococcus aureus isolate AG 038 by broth microdilution assay; format: functional
Staphylococcus aureus [7] = assay: Antibacterial activity against methicillin-resistant Staphylococcus aureus isolate AG 039 by broth microdilution assay; format: functional
Staphylococcus aureus [8] = assay: Antibacterial activity against methicillin-resistant Staphylococcus aureus isolate AG 042 by broth microdilution assay; format: functional
Staphylococcus aureus [9] = assay: Antibacterial activity against methicillin-resistant Staphylococcus aureus isolate AG 044 by broth microdilution assay; format: functional
Escherichia coli [10] = assay: Antibacterial activity against Escherichia coli isolate 006 by broth microdilution assay; format: functional
Escherichia coli [11] = assay: Antibacterial activity against Escherichia coli isolate 001 by broth microdilution assay; format: functional
Escherichia coli [12] = assay: Antibacterial activity against Escherichia coli isolate 055 by broth microdilution assay; format: functional
Escherichia coli [13] = assay: Antibacterial activity against Escherichia coli isolate 003 by broth microdilution assay; format: functional

Structure (SMILES) | IC50 (Bacterial 70S ribosome) [µM] | IC50 [1] [µg/mL] | IC50 [2] [µg/mL] | IC50 [3] [µg/mL] | IC50 (80S Ribosome) [µM] | IC50 [4] [µg/mL] | IC50 [5] [µg/mL] | IC50 (Ribosome) [µg/mL] | MIC (Staphylococcus aureus [6]) [µg/mL] | MIC (Staphylococcus aureus [7]) [µg/mL] | MIC (Staphylococcus aureus [8]) [µg/mL] | MIC (Staphylococcus aureus [9]) [µg/mL] | MIC (Escherichia coli [10]) [µg/mL] | MIC (Escherichia coli [11]) [µg/mL] | MIC (Escherichia coli [12]) [µg/mL] | MIC (Escherichia coli [13]) [µg/mL]
NC[C@@H]1O[C@H](O[C@H]2[C@@H](O)[C@H](O[C@@H]3[C@@H](O)[C@H](N)C[C@H](N)[C@H]3O[C@H]3O[C@H](CO)[C@@H](O[C@@H]4O[C@H](CO)[C@@H](O)[C@H](O)[C@H]4O)[C@H](O)[C@H]3N)O[C@@H]2CO)[C@H](N)[C@@H](O)[C@@H]1O | 0.476 | 294.83 | 15.5 | 9.32 | 76 | 83.64 | 117.53 | 60.75 | 128 (≈ 165 µM) | ≥ 128 | > 128 | 128 (≈ 165 µM) | 32 (≈ 41.1 µM) | > 128 | > 128 | > 128
NC[C@@H]1O[C@H](O[C@H]2[C@@H](O)[C@H](O[C@@H]3[C@@H](O)[C@H](N)C[C@H](N)[C@H]3O[C@H]3O[C@@H]4COC(CCc5ccccc5)O[C@H]4[C@H](O)[C@H]3N)O[C@@H]2CO)[C@H](N)[C@@H](O)[C@@H]1O (some centres undefined) | 0.137 | 124.07 | 43.01 | 3.81 | 452 | 126.88 | 183.86 | – | 4 (≈ 5.47 µM) | 8 (≈ 10.9 µM) | 4 (≈ 5.47 µM) | 16 (≈ 21.9 µM) | 16 (≈ 21.9 µM) | 32 (≈ 43.7 µM) | 32 (≈ 43.7 µM) | 32 (≈ 43.7 µM)
NC[C@@H]1O[C@H](O[C@H]2[C@@H](O)[C@H](O[C@@H]3[C@@H](O)[C@H](N)C[C@H](N)[C@H]3O[C@H]3O[C@H](CO)[C@@H](OCO[C@H]4O[C@H](CO)[C@@H](O)[C@H](O)[C@H]4O)[C@H](O)[C@H]3N)O[C@@H]2CO)[C@H](N)[C@@H](O)[C@@H]1O | 0.384 | 200.3 | 33.45 | 17.16 | 29.8 | 96.03 | 130.61 | 43.14 | 64 (≈ 79.2 µM) | ≥ 128 | 128 (≈ 158 µM) | 64 (≈ 79.2 µM) | 64 (≈ 79.2 µM) | ≥ 128 | ≥ 128 | ≥ 128
NC[C@@H]1O[C@H](O[C@H]2[C@@H](O)[C@H](O[C@@H]3[C@@H](O)[C@H](N)C[C@H](N)[C@H]3O[C@H]3O[C@H](CO)[C@@H](O[C@@H]4O[C@H](CO)[C@H](O)[C@H](O)[C@H]4O)[C@H](O)[C@H]3N)O[C@@H]2CO)[C@H](N)[C@@H](O)[C@@H]1O | 1.95 | 623.16 | 78.05 | 36.46 | 182 | 209.22 | 286.76 | 104.57 | ≥ 128 | ≥ 128 | > 128 | > 128 | 128 (≈ 165 µM) | > 128 | > 128 | > 128
NC[C@@H]1O[C@H](O[C@H]2[C@@H](O)[C@H](O[C@@H]3[C@@H](O)[C@H](N)C[C@H](N)[C@H]3O[C@H]3O[C@H](CO)[C@@H](O[C@H]4O[C@H](CO)[C@@H](O)[C@H](O)[C@H]4O)[C@H](O)[C@H]3N)O[C@@H]2CO)[C@H](N)[C@@H](O)[C@@H]1O | 0.411 | 109.01 | 27.08 | 21.84 | 2.39 | 13.98 | 46.26 | 30.64 | 32 (≈ 41.1 µM) | 32 (≈ 41.1 µM) | 32 (≈ 41.1 µM) | 16 (≈ 20.6 µM) | 16 (≈ 20.6 µM) | 128 (≈ 165 µM) | 128 (≈ 165 µM) | 128 (≈ 165 µM)
CN[C@@H]1[C@@H](O[C@H]2O[C@H](CO)[C@@H](N)[C@H](O)[C@H]2O)O[C@H]2C[C@@H](N)[C@@H](O[C@H]3[C@H](O)[C@@H](O)[C@H](N)C[C@@H]3N)O[C@@H]2[C@@H]1O [APRAMYCIN] | 0.111 | 31.21 | 5 | 128.89 | 108 | 26.06 | 49.17 | 23.77 | 8 (≈ 14.8 µM) | 8 (≈ 14.8 µM) | 8 (≈ 14.8 µM) | 16 (≈ 29.7 µM) | 4 (≈ 7.41 µM) | 16 (≈ 29.7 µM) | 8 (≈ 14.8 µM) | 8 (≈ 14.8 µM)
NC[C@@H]1O[C@H](O[C@H]2[C@@H](O)[C@H](O[C@@H]3[C@@H](O)[C@H](N)C[C@H](N)[C@H]3O[C@H]3O[C@H](CO)[C@@H](O)[C@H](O)[C@H]3N)O[C@@H]2CO)[C@H](N)[C@@H](O)[C@@H]1O [PAROMOMYCIN] | 0.0487 | 10.42 | 0.57 | 0.26 | 82.1 | 5.83 | 10.39 | 9.78 | 4 (≈ 6.5 µM) | > 256 | > 256 | 4 (≈ 6.5 µM) | 2 (≈ 3.25 µM) | 16 (≈ 26 µM) | 8 (≈ 13 µM) | 8 (≈ 13 µM)
NC[C@@H]1O[C@H](O[C@H]2[C@@H](O)[C@H](O[C@@H]3[C@@H](O)[C@H](N)C[C@H](N)[C@H]3O[C@H]3O[C@H](CO)[C@@H](O[C@H]4O[C@H](CO)[C@@H](N)[C@H](O)[C@H]4O)[C@H](O)[C@H]3N)O[C@@H]2CO)[C@H](N)[C@@H](O)[C@@H]1O | 0.154 | 32.79 | 6.07 | 7.06 | 0.438 | 3.62 | 18.95 | 19.59 | 4 (≈ 5.15 µM) | 8 (≈ 10.3 µM) | 8 (≈ 10.3 µM) | 4 (≈ 5.15 µM) | 2 (≈ 2.57 µM) | 32 (≈ 41.2 µM) | 32 (≈ 41.2 µM) | 16 (≈ 20.6 µM)
NC[C@@H]1O[C@H](O[C@H]2[C@@H](O)[C@H](O[C@@H]3[C@@H](O)[C@H](N)C[C@H](N)[C@H]3O[C@H]3O[C@H](CO)[C@@H](OCCCc4ccccc4)[C@H](O)[C@H]3N)O[C@@H]2CO)[C@H](N)[C@@H](O)[C@@H]1O | 0.273 | 210.73 | 51.26 | 14.52 | 67.9 | 105.68 | 268.57 | – | 2 (≈ 2.73 µM) | 8 (≈ 10.9 µM) | 4 (≈ 5.45 µM) | 4 (≈ 5.45 µM) | 8 (≈ 10.9 µM) | 16 (≈ 21.8 µM) | 16 (≈ 21.8 µM) | 8 (≈ 10.9 µM)
NC[C@@H]1O[C@H](O[C@H]2[C@@H](O)[C@H](O[C@@H]3[C@@H](O)[C@H](N)C[C@H](N)[C@H]3O[C@H]3O[C@H](CO)[C@@H](O[C@@H]4O[C@H](CO)[C@@H](O)[C@H](O)[C@@H]4O)[C@H](O)[C@H]3N)O[C@@H]2CO)[C@H](N)[C@@H](O)[C@@H]1O | 0.591 | 297.39 | 51.48 | 27.91 | 70.2 | 85.7 | 90.35 | 47.64 | ≥ 128 | ≥ 128 | ≥ 128 | ≥ 128 | 64 (≈ 82.3 µM) | > 128 | > 128 | > 128
NC[C@@H]1O[C@H](O[C@H]2[C@@H](O)[C@H](O[C@@H]3[C@@H](O)[C@H](N)C[C@H](N)[C@H]3O[C@H]3O[C@H](CO)[C@@H](O[C@H]4O[C@H](CO)[C@@H](O)[C@H](O)[C@@H]4O)[C@H](O)[C@H]3N)O[C@@H]2CO)[C@H](N)[C@@H](O)[C@@H]1O | 0.373 | 81.32 | 8.79 | 5.1 | 2.82 | 18.05 | 51.72 | 36.82 | 64 (≈ 82.3 µM) | ≥ 128 | > 128 | 32 (≈ 41.1 µM) | 16 (≈ 20.6 µM) | > 128 | > 128 | ≥ 128
